Source: patent publication US8841302B2, “HCV inhibitor and therapeutic agent combinations” (PTC Therapeutics, Inc., priority 2009, dated 2014)

Tested on: HCV replicon RNA in replicon cells
Experiment: Replicon RNA response to antiviral agent(s), real time PCR (Taqman assay)
Format: cell-based
Settings: replicon cells treated 3 days
Procedure: Replicon cells were seeded at ˜5000 cells/well in 96-well collagen I-coated Biocoat plates (Becton Dickinson). At 24 hrs post-seeding, a series of replicon cells were treated with a HCV protease inhibitor and a HCV inhibitor. The final concentration of DMSO was 0.5%, fetal bovine serum was 10%, and G418 (an aminoglycoside used as a selective agent) was 500 μg/mL.
To each concentration of Compound 10p, HCV inhibitor Compound 31 was titrated. After 3 days, the cells were washed with PBS and lysed in 1× Cell Lysis Buffer (Ambion cat #8721).
The replicon RNA level was measured using real time PCR (Taqman assay). The ampicon was located in NS5b. The PCR primers used were: 5B.2F, ATGGACAGGCGCCCTGA (SEQ ID NO: 1); 5B.2R, […] (SEQ ID NO: 2); the probe sequence was FAM-labeled CACGCCATGCGCTGCGG (SEQ ID NO: 3). GAPDH RNA was used as endogenous control and was amplified in the same reaction as NS5b (multiplex PCR) using primers and VIC-labeled probe recommended by the manufacturer (PE Applied Biosystem). The real-time RT-PCR reactions were run on ABI PRISM 7900HT Sequence Detection System using the following program: 48° C. for 30 min, 95° C. for 10 min, 40 cycles of 95° C. for 15 sec, 60° C. for 1 min. The ΔCT values (CT5B-CTGAPDH) were plotted against test compound concentration and fitted to the sigmoid dose response model using Graphpad PRISM software (Graphpad Software Inc.). The half maximal inhibitory concentration (IC50) is the concentration necessary to achieve ΔCT=1 over the projected baseline. The 90% maximal inhibitory concentration (IC90) is the concentration necessary to achieve ΔCT=3.2 over the baseline. Alternatively, to quantitate the absolute amount of replicon RNA, a standard curve was established by including serially diluted T7 transcripts of replicon RNA in the Taqman assay. All Taqman reagents were from PE Applied Biosystem.

In the case of `N#Cc1c(-c2ccc(S(=O)(=O)NC(CF)CF)cn2)n(C2CCC2)c2cc(OC(F)F)ccc12` [Compound 31, 6-[3-cyano-1-cyclobutyl-6-(difluoromethoxy)-1H-indol-2-yl]-N-(1,3-difluoropropan-2-yl)pyridine-3-sulfonamide], the “relative inhibition (logarithmic scale) of replicon RNA level” value (shortened to “relative inhibition (logarithmic scale)”) (Compound 31 0.045 μM in combination with Cpd 10p 0.19 μM) is reported as −1.16, the “relative inhibition (logarithmic scale)” value (Compound 31 0.045 μM in combination with Cpd 10p 1.5 μM) is reported as −1.72 and the “relative inhibition (logarithmic scale)” value (Compound 31 0.405 μM in combination with Cpd 10p 0.19 μM) is reported as −1.73. The “relative inhibition (logarithmic scale)” value (Compound 31 0.405 μM in combination with Cpd 10p 1.5 μM) was −2.02.
With `CC(C)(C)NC(=O)N[C@H](C(=O)N1C[C@H]2[C@@H]([C@H]1C(=O)NC(CC1CCC1)C(=O)C(N)=O)C2(C)C)C(C)(C)C` (stereo partly drawn) [Cpd 10p, (1R,2S,5S)-N-(4-amino-1-cyclobutyl-3,4-dioxobutan-2-yl)-3-((S)-2-(3-tert-butylureido)-3,3-dimethylbutanoyl)-6,6-dimethyl-3-azabicyclo[3.1.0]hexane-2-carboxamide, reference compound] the “relative inhibition (logarithmic scale)” value (Cpd 10p 0.19 μM alone (Compound 31 0 μM)) was −0.11 and the “relative inhibition (logarithmic scale)” value (Cpd 10p 1.5 μM alone (Compound 31 0 μM)) was −1.52.
